Data set [1] relates to L1210. The data set is described as follows: In vitro 50% inhibitory activity against L1210 murine leukemia. The data set is classed as functional, cell-based. The note with it: Mus musculus.
Data set [2] has as its target Nucleic Acid. The data set is described as follows: In vitro DNA poly-dGdC binding by ethidium bromide displacement. The data set is classed as nucleic-acid assay.
Data set [3] addresses Nucleic Acid. The data set is described as follows: In vitro DNA poly-dAdT binding by ethidium bromide displacement. The data set is classed as nucleic-acid assay.
In data set [4] the test system is Mus musculus. The data set is described as follows: Compound was evaluated in vivo for the maximum tolerated dose (MTD) against MX-1 (breast) human solid tumors implanted in nude mice. The data set is classed as functional.
The subject of data set [5] is Mus musculus. The data set is described as follows: Compound was evaluated in vivo for the percent tumor growth inhibition against human solid tumors implanted in nude mice LX-1 (lung), iv. The data set is classed as functional.
In data set [6] the test system is Mus musculus. The data set is described as follows: Compound was evaluated in vivo for the percent tumor growth inhibition against human solid tumors implanted in nude mice DLD-2 (colon), iv. The data set is classed as functional.
Data set [7] relates to Mus musculus. The data set is described as follows: Compound was evaluated in vivo for the maximum tolerated dose against human solid tumors implanted in nude mice MX-1 (breast). The data set is classed as functional.
For data set [8], the system named is Mus musculus. The data set is described as follows: Compound was evaluated in vivo for the maximum tolerated dose against human solid tumors implanted in nude miceLX-1 (lung). The data set is classed as functional.
Data set [9] in a line: Solubility in water. The data set is classed as physicochemical. The settings on record: read-out: S.
The test system of data set [10] is Mus musculus. The data set is described as follows: Compound was evaluated in vivo for the maximum tolerated dose against human solid tumors implanted in nude miceDLD-2 (colon). The data set is classed as functional.
Data set [11] deals with Mus musculus. The data set is described as follows: Compound was evaluated in vivo for the percent tumor growth inhibition against human solid tumors implanted in nude mice MX-1 (breast), iv. The data set is classed as functional.
Data set [12] has as its system Mus musculus. The data set is described as follows: Compound was evaluated in vivo for the maximum tolerated dose against the following human solid tumors implanted in nude miceDLD-2 (colon). The data set is classed as functional.
Data set [13] relates to Mus musculus. The data set is described as follows: Compound was evaluated in vivo for the maximum tolerated dose against the following human solid tumors implanted in nude miceLX-1 (lung). The data set is classed as functional.
Data set [14] has as its system Mus musculus. The data set is described as follows: Compound was evaluated in vivo for the maximum tolerated dose against the following human solid tumors implanted in nude miceMX-1 (breast). The data set is classed as functional.
Data set [15] concerns Mus musculus. The data set is described as follows: Compound was evaluated in vivo for the maximum tolerated dose against the following human solid tumors implanted in nude mice MX-1 (breast). The data set is classed as functional.

Some results are limits rather than exact numbers.

As a reminder, the IC50 is the concentration needed to halve the response being measured. A lower IC50 goes with higher potency. As to `COc1ccc2cc3c4c(cccc4c2c1)C(=O)N([C@H](C)CNCCNC[C@@H](C)N1C(=O)c2cccc4cc([N+](=O)[O-])cc(c24)C1=O)C3=O`, the IC50 in data set [1] amounted to 0.25 µM; in data set [2], 0.13 µM; in [3], 0.8 µM.
Broadly, the MTD is the largest dose that counted as tolerated. A higher MTD goes with a wide tolerated range. `CS(=O)(=O)O.CS(=O)(=O)O.Cc1cnc2c(c1)cc1c3c(cc([N+](=O)[O-])cc32)C(=O)N([C@H](C)CNCCNC[C@@H](C)N2C(=O)c3cccc4cc([N+](=O)[O-])cc(c34)C2=O)C1=O`: the IC50 in [1] came to 0.041 µM; in data set [2] it was 0.073 µM; in data set [3], 0.61 µM. The MTD in data set [4] is 6 mg/kg.
For `C[C@H](CNCCNC[C@@H](C)N1C(=O)c2cccc3c2c(cc2ccc(C(F)(F)F)cc23)C1=O)N1C(=O)c2cccc3cc([N+](=O)[O-])cc(c23)C1=O`, the results for the 50% inhibitory concentration (IC50) in data set [1], in data set [2] and in data set [3] were 0.45 µM, 0.17 µM and 2.55 µM, respectively.
For `C[C@H](CNCCNC[C@@H](C)N1C(=O)c2cccc3c2c(cc2cc(F)cnc23)C1=O)N1C(=O)c2cccc3cc([N+](=O)[O-])cc(c23)C1=O`, the concentration for half-maximal inhibition (IC50) is 0.064 µM in data set [1], 0.059 µM in [2] and 1.42 µM in [3].
A word on the Inhibition: it is the drop in the measured response relative to a control, in per cent. On to `CS(=O)(=O)O.CS(=O)(=O)O.C[C@H](CNCCNC[C@@H](C)N1C(=O)c2ccc3c4c(ccc(c24)C1=O)CC3)N1C(=O)c2cccc3cc([N+](=O)[O-])cc(c23)C1=O`, for which the IC50 in [1] came out at 0.075 µM; in data set [2] it was 0.11 µM; in data set [3], 1.57 µM. The Inhibition in data set [5] is 95%; in data set [6], 98%; in [11] it was 97%. The MTD in [7] turned out to be 12.5 mg/kg; in [8], 10 mg/kg; in data set [10], 12.5 mg/kg. Besides, the solubility in [9] stood at 29 mg/mL.
`C[C@H](CNCCNC[C@@H](C)N1C(=O)c2cccc3c2c(cc2ccc(F)cc23)C1=O)N1C(=O)c2cccc3cc([N+](=O)[O-])cc(c23)C1=O`: the IC50 amounted to 0.31 µM in data set [1], 0.11 µM in data set [2] and 1.51 µM in data set [3].
For `C[C@H](CNCCNC[C@@H](C)N1C(=O)c2cc([N+](=O)[O-])cc3c2c(cc2ccncc23)C1=O)N1C(=O)c2cccc3cc([N+](=O)[O-])cc(c23)C1=O` the same measures were 0.051 µM, 0.062 µM and 0.88 µM.
For the compound `C[C@H](CNCCNC[C@@H](C)N1C(=O)c2cccc3c2c(cc2ccccc23)C1=O)N1C(=O)c2cccc3cc([N+](=O)[O-])cc(c23)C1=O`, the values for the half-inhibitory concentration (IC50) in [1], in [2] and in [3] were 0.42 µM, 0.97 µM and 1.02 µM, respectively.
In the case of `CS(=O)(=O)O.CS(=O)(=O)O.C[C@H](CNCCNC[C@@H](C)N1C(=O)c2cccc3c2c(cc2ccncc23)C1=O)N1C(=O)c2cccc3cc([N+](=O)[O-])cc(c23)C1=O`, the MTD in data set [12], in data set [13] and in [14] was 6 mg/kg throughout. Also, the IC50 amounted to 0.035 µM in data set [1], 0.088 µM in data set [2] and 1.2 µM in data set [3]. Further, the Inhibition in data set [5] was 94%; in [6] it was 99%. For the same compound, the solubility in data set [9] came to 65 mg/mL.
`C[C@H](CNCCNC[C@@H](C)N1C(=O)c2cc([N+](=O)[O-])cc3c2c(cc2cccnc23)C1=O)N1C(=O)c2cccc3cc([N+](=O)[O-])cc(c23)C1=O`: the IC50 in data set [1] worked out at 0.024 µM; in data set [2] it was 0.085 µM; in [3] it was 1.57 µM.
Consider `CS(=O)(=O)O.CS(=O)(=O)O.C[C@H](CNCCNC[C@@H](C)N1C(=O)c2cccc3c2c(cc2cccnc23)C1=O)N1C(=O)c2cccc3cc([N+](=O)[O-])cc(c23)C1=O`, for which the IC50 in [1] turned out to be 0.25 µM; in data set [2] it was 0.073 µM; in [3], 1.08 µM. Also, the solubility in data set [9] was above 35.6 mg/mL. Moreover, the MTD in data set [4] turned out to be 6.2 mg/kg.
Take `CS(=O)(=O)O.CS(=O)(=O)O.C[C@H](CNCCNC[C@@H](C)N1C(=O)c2cccc3cc([N+](=O)[O-])cc(c23)C1=O)N1C(=O)c2cccc3cc([N+](=O)[O-])cc(c23)C1=O` [BISNAFIDE DIMESYLATE]: the MTD in data set [12], in data set [13] and in data set [15] was 10 mg/kg throughout. The 50% inhibitory concentration (IC50) stood at 0.034 µM in data set [1], 0.04 µM in data set [2] and 1 µM in data set [3]. Moreover, the results for the Inhibition in data set [5], in [6] and in [11] were 96%, 99% and above 96%, respectively. Also, the solubility in [9] was 3.5 mg/mL.
